From patent US6608090B1, “Benzothiophenes with novel basic side chains” (Eli Lilly and Company, priority 1995, dated 2003)
Blank lines part the entries; values can stand above or below the molecule they belong to.

How the values were obtained:
[1] = system: ovariectomized (OVX) female Sprague Dawley rats; assay: Serum cholesterol in ovariectomized rats (post-menopausal model), 4 days of daily dosing; assay type: in vivo, rat; settings: for Cholest. % dec. OVX: oral, daily for 4 days
Description: (§1) In the examples illustrating the methods, a post-menopausal model was used in which effects of different treatments upon circulating lipids were determined.
(§2) Seventy-five day old female Sprague Dawley rats (weight range of 200 to 225 g) were obtained from Charles River Laboratories (Portage, Mich.). The animals were either bilaterally ovariectomized (OVX) or exposed to a Sham surgical procedure at Charles River Laboratories, and then shipped after one week. Upon arrival, they were housed in metal hanging cages in groups of 3 or 4 per cage and had ad libitum access to food (calcium content approximately 0.5%) and water for one week. Room temperature was maintained at 22.2°±1.70° C. with a minimum relative humidity of 40%. The photoperiod in the room was 12 hours light and 12 hours dark.
(§3) Dosina Reaimen Tissue Collection. After a one week acclimation period (therefore, two weeks post-OVX) daily dosing with test compound was initiated. 17α-ethynyl estradiol or the test compound were given orally, unless otherwise stated, as a suspension in 1% carboxymethylcellulose or dissolved in 20% cyclodextrin. Animals were dosed daily for 4 days. Following the dosing regimen, animals were weighed and anesthetized with a ketamine: xylazine (2:1, V:V) mixture and a blood sample was collected by cardiac puncture. The animals were then sacrificed by asphyxiation with CO2, the uterus was removed through a midline incision, and a wet uterine weight was determined.
Cholesterol Analysis. Blood samples were allowed to clot at room temperature for 2 hours, and serum was obtained following centrifugation for 10 minutes at 3000 rpm. Serum cholesterol was determined using a Boehringer Mannheim Diagnostics high performance cholesterol assay. Briefly the cholesterol was oxidized to cholest-4-en-3-one and hydrogen peroxide. The hydrogen peroxide was then reacted with phenol and 4-aminophenazone in the presence of peroxidase to produce a p-quinone imine dye, which was read spectrophotemetrically at 500 nm. Cholesterol concentration was then calculated against a standard curve. The entire assay was automated using a Biomek Automated Workstation.

[2] = system: ovariectomized (OVX) female Sprague Dawley rats; assay: Wet uterine weight in ovariectomized rats, 4 days of daily dosing; settings: rat, in vivo, po, 0.1 mg/kg/day
Description: as §1, §2
as §3, with “Following the dosing regimen, animals were weighed and anesthetized with a ketamine: xylazine (2:1, V:V) mixture and a blood sample was collected by cardiac puncture.” left out

ovariectomized rats = assay: Osteoporosis Test Procedure: femur density in ovariectomized rats, 35 days; assay type: in vivo, rat; settings: oral, in 20% hydroxypropyl β-cyclodextrin, daily for 35 days
Description: Following the General Preparation Procedure, infra, the rats are treated daily for 35 days (6 rats per treatment group) and sacrificed by decapitation on the 36th day. The 35 day time period is sufficient to allow maximal reduction in bone density, measured as described herein. At the time of sacrifice, the uteri are removed, dissected free of extraneous tissue, and the fluid contents are expelled before determination of wet weight in order to confirm estrogen deficiency associated with complete ovariectomy. […] The uteri are then placed in 10% neutral buffered formalin to allow for subsequent histological analysis. The right femurs are excised and scanned at the distal metaphysis 1 mm from the patellar groove with single photon absorptiometry. Results of the densitometer measurements represent a calculation of bone density as a function of the bone mineral content and bone width. In accordance with the above procedures, compounds of the present invention and ethynyl estradiol (EE2) in 20% hydroxypropyl β-cyclodextrin are orally administered to test animals.

[3] = system: uteri of ovariectomized (OVX) female Sprague Dawley rats; assay: Uterine Eosinophil Peroxidase (EPO) Assay; settings: rat, in vivo

SMILES: CC1CCN(CCOc2ccc(C(=O)c3c(-c4ccc(O)cc4)sc4cc(O)ccc34)cc2)CC1
Cholest. % dec. OVX ([1]; 0.1 mg/kg): 43.2%
Cholest. % dec. OVX ([1]; 1 mg/kg): 71.0%
Cholest. % dec. OVX ([1]; 10 mg/kg): 51.6%

SMILES: CC1(C)CCCN(CCOc2ccc(C(=O)c3c(-c4ccc(O)cc4)sc4cc(O)ccc34)cc2)C1
Cholest. % dec. OVX ([1]; 0.1 mg/kg): 25.1%
Cholest. % dec. OVX ([1]; 1 mg/kg): 58.6%
Cholest. % dec. OVX ([1]; 10 mg/kg): 50.9%

SMILES: CC1(C)CCN(CCOc2ccc(C(=O)c3c(-c4ccc(O)cc4)sc4cc(O)ccc34)cc2)CC1
Cholest. % dec. OVX ([1]; 0.1 mg/kg): 14.5%
Cholest. % dec. OVX ([1]; 1 mg/kg): 25.9%
Cholest. % dec. OVX ([1]; 10 mg/kg): 65.8%

SMILES: C[C@@H]1C[C@H](C)CN(CCOc2ccc(C(=O)c3c(-c4ccc(O)cc4)sc4cc(O)ccc34)cc2)C1
Cholest. % dec. OVX ([1]; 0.1 mg/kg): 13.8%
Cholest. % dec. OVX ([1]; 1 mg/kg): 66.8%
Cholest. % dec. OVX ([1]; 10 mg/kg): 85.5%

SMILES: CC1CCCC(C)N1CCOc1ccc(C(=O)c2c(-c3ccc(O)cc3)sc3cc(O)ccc23)cc1 (stereo not shown)
Cholest. % dec. OVX ([1]; 0.1 mg/kg): 41.5%
Cholest. % dec. OVX ([1]; 1 mg/kg): 62.3%
Cholest. % dec. OVX ([1]; 10 mg/kg): 76.9%

SMILES: COC[C@@H]1CCCN1CCOc1ccc(C(=O)c2c(-c3ccc(O)cc3)sc3cc(O)ccc23)cc1
Cholest. % dec. OVX ([1]; 0.1 mg/kg): 30.2%
Cholest. % dec. OVX ([1]; 1 mg/kg): 65.4%
Cholest. % dec. OVX ([1]; 10 mg/kg): 80.3%

SMILES: O=C(c1ccc(OCCN2CCC[C@@H]2CO)cc1)c1c(-c2ccc(O)cc2)sc2cc(O)ccc12
Cholest. % dec. OVX ([1]; 0.1 mg/kg): 42.0%
Cholest. % dec. OVX ([1]; 1 mg/kg): 40.6%
Cholest. % dec. OVX ([1]; 10 mg/kg): 71.9%

SMILES: O=C(c1ccc(OCCN2CCC[C@H]2CO)cc1)c1c(-c2ccc(O)cc2)sc2cc(O)ccc12
Cholest. % dec. OVX ([1]; 0.1 mg/kg): 46.7%
Cholest. % dec. OVX ([1]; 1 mg/kg): 73.7%
Cholest. % dec. OVX ([1]; 10 mg/kg): 74.5%

SMILES: CC1CC(C)CN(CCOc2ccc(C(=O)c3c(-c4ccc(O)cc4)sc4cc(O)ccc34)cc2)C1 (racemic)
Cholest. % dec. OVX ([1]; 0.1 mg/kg): 50.6%
Cholest. % dec. OVX ([1]; 1 mg/kg): 69.7%
Cholest. % dec. OVX ([1]; 10 mg/kg): 81.6%

uterine weight compared with ovariectomized test animals (in words) [2]: substantially greater
SMILES: C#C[C@]1(O)CC[C@H]2[C@@H]3CCc4cc(O)ccc4[C@H]3CC[C@@]21C [EE2, 17α-ethynyl estradiol]
effect on serum cholesterol (in words) ([1]; orally administered at 0.1 mg/Kg/day): caused a decrease in serum cholesterol
loss of femur density (bone loss) after ovariectomy, in words (ovariectomized rats): prevents this loss
eosinophil infiltration into the uterus (stromal layer), in words [3]: substantial, expected increase in esosinophils infiltration
